Data on 1 compound can be found in patent publication US20140275275A1, “Chlorhexadine Antiseptic” (CARNELL & HERZOG, LLC, priority 2013, published 2014).

The assay concerns methicillin-resistant Staphylococcus aureus. As to the kind of experiment: In-vitro time-kill test on S. aureus (MRSA). As to conditions: for Post-exposure population: inoculum 1.460×10^7 CFU/ML.

Protocol: This example compares the test composition to a solution of 4% chlorhexidine gluconate. The microorganism used in the test was methicillin-resistant Staphylococcus aureus.
An in-vitro time-kill test was performed on S. aureus using both the test composition and the solution of 4% chlorhexidine gluconate. A S. aureus suspension with an inoculum level of 1.460×10^7 colony-forming units (CFU)/ML was used for all tests. A 0.1 mL aliquot of the S. aureus suspension was added to 9.9 mL of the test composition or the 4% chlorhexidine gluconate solution and exposed for periods of one minute, five minutes, and 10 minutes. At the end of each exposure period, a neutralizer was added to stop the bactericidal activity.

With `N=C(NCCCCCCNC(=N)NC(=N)Nc1ccc(Cl)cc1)NC(=N)Nc1ccc(Cl)cc1.O=C(O)[C@H](O)[C@@H](O)[C@H](O)[C@H](O)CO.O=C(O)[C@H](O)[C@@H](O)[C@H](O)[C@H](O)CO` [4% chlorhexidine gluconate, chlorhexidine gluconate], for the setting “exposure 1 minute”, the Log10 reduction stood at 4.0798 Log10, the Percent reduction is 99.9917% and the Post-exposure population is 1.2150 × 10^3 CFU/ML. For the same compound, for the setting “exposure 5 minutes”, the Log10 reduction came to 6.1644 Log10, the Percent reduction was 99.9999% and the Post-exposure population is <1.00 × 10^1 CFU/ML. Under “exposure 10 minutes”, the Log10 reduction was 6.1644 Log10, the Percent reduction amounted to 99.9999% and the Post-exposure population is on record as <1.00 × 10^1 CFU/ML.
